From patent EP0168515A2, “Process for the preparation of steffimycinones, analogues of steffimycinones so obtained, intermediates useful in the synthesis of those compounds, use of these compounds as antibacterials acid for the synthesis of antitumor products” (LABORATOIRES HOECHST S.A., priority 1984, dated 1986) come the findings set out here.

The subject of assay [1] is Bacillus pumilus (CNCM 7618). Briefly: Bactericidal action: growth inhibition test. Conditions: 100 µg/ml in 60% Dimethylsulfoxyd / 40% destilliertem Wasser, after 24 Stunden. It is filed as cell-based. Here is the method: (§1) Das Produkt der Formel II wurde an folgenden Mikroorganismen geprüft: • Bacillus pumilus (CNCM 7618) und • Bacillus subtilis (ATCC 6533)
(§2) Es wurde auf eine Konzentration von 100 µg/ml in einem Gemisch aus 60% Dimethylsulfoxyd und 40% destilliertem Wasser solubilisiert.

In assay [2] the test system is Bacillus subtilis (ATCC 6533). Briefly: Bactericidal action: growth inhibition test. Conditions: 100 µg/ml in 60% Dimethylsulfoxyd / 40% destilliertem Wasser, after 24 Stunden. In kind it is cell-based. The protocol:
as §1, §2

Consider `COc1cc(O)c2c(c1)C(=O)c1cc3c(c(O)c1C2=O)C(O)CC(C)(O)C3=O` (single isomer, unassigned; (+)) [Verbindung II, (+)-8-Desmethoxy-steffimycinon], for which the Wachstum result in assay [1] and in assay [2] was “völlig gehemmt” each time.
